How the values were obtained:
[1] = system: rice; test: Test B flood test rice; type: in vivo, Oryza sativa; conditions: Pre-emergence
Method in brief: (§1)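 Read-out is a visual response score from 0 (no effect) to 10 (complete control), assigned by comparison with untreated controls. Treatment was applied at the 2-leaf stage, and plants stayed in the greenhouse for twelve to sixteen days before scoring.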

[2] = system: cocklebur; test: Test B pre/postemergence cocklebur; type: in vivo, Xanthium strumarium
Method in brief: (§2)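 Response is a visual 0-to-10 score relative to untreated plants, where 0 means no effect and 10 means complete control, taken twelve to sixteen days after application. Treatments went onto soil at planting and onto foliage of 1- to 4-leaf plants, using a surfactant-containing non-phytotoxic solvent.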

[3] = system: duck salad; test: Test B flood test duck salad; type: in vivo, Heteranthera limosa; conditions: Pre-emergence
Method in brief: as §1

[4] = system: giant foxtail; test: Test B pre/postemergence giant foxtail; type: in vivo, Setaria faberii
Method in brief: as §2

[5] = system: sugar beet; test: Test B pre/postemergence sugar beet; type: in vivo, Beta vulgaris
Method in brief: as §2

[6] = system: purple nutsedge; test: Test B pre/postemergence purple nutsedge; type: in vivo, Cyperus rotundus
Method in brief: as §2

[7] = system: wheat; test: Test B pre/postemergence wheat; type: in vivo, Triticum aestivum
Method in brief: as §2

[8] = system: smallflower flatsedge; test: Test B flood test smallflower flatsedge; type: in vivo, Cyperus difformis; conditions: Pre-emergence
Method in brief: as §1

[9] = system: wild oat; test: Test B pre/postemergence wild oat; type: in vivo, Avena fatua
Method in brief: as §2

[10] = system: crabgrass; test: Test B pre/postemergence crabgrass; type: in vivo, Digitaria sanguinalis
Method in brief: as §2

[11] = system: morningglory; test: Test B pre/postemergence morningglory; type: in vivo, Ipomoea hederacea
Method in brief: as §2

[12] = system: soybean; test: Test B pre/postemergence soybean; type: in vivo, Glycine max
Method in brief: as §2

[13] = system: rape; test: Test B pre/postemergence rape; type: in vivo, Brassica napus
Method in brief: as §2

[14] = system: velvetleaf; test: Test B pre/postemergence velvetleaf; type: in vivo, Abutilon theophrasti
Method in brief: as §2

[15] = system: corn; test: Test B pre/postemergence corn; type: in vivo, Zea mays
Method in brief: as §2

[16] = system: pigweed; test: Test B pre/postemergence pigweed; type: in vivo, Amaranthus retroflexus
Method in brief: as §2

[17] = Rate 1000 g/ha, scale 0 to 10 (0 no effect, 10 complete control)
[18] = Rate 125 g/ha, flood test species, scale 0 to 10 where 0 is no effect and 10 is complete control
[19] = Rate 250 g/ha, flood-test species, scale 0 to 10, 0 is no effect, 10 is complete control
[20] = Rate 500 g/ha, flood test species, scale 0 to 10 (0 no effect, 10 complete control)
[21] = Postemergence, Rate 1000 g/ha, scale 0 to 10 (0 no effect, 10 complete control)
[22] = Preemergence, Rate 250 g/ha, scale of 0 to 10 where 0 is no effect and 10 is complete control
[23] = Preemergence, Rate 500 g/ha, scale of 0 to 10 where 0 is no effect and 10 is complete control
[24] = Rate 125 g/ha, Postemergence, scale of 0 to 10 where 0 is no effect and 10 is complete control
[25] = Rate 250 g/ha, Postemergence, scale of 0 to 10 where 0 is no effect and 10 is complete control
[26] = Rate 500 g/ha, Postemergence, scale 0 to 10, 0 no effect, 10 complete control
[27] = Rate 1000 g/ha, Preemergence, scale 0 to 10 (0 no effect, 10 complete control)

## CCOC(=O)C(C)N(C(=O)n1oc(=O)n(C(C)C)c1=O)c1ccc(F)cc1 (centres unmarked) [Compound 302]
[1]; [17]
  Rice plant response rating: 0
[1]; [18]
  Rice plant response rating: 0
[1]; [19]
  Rice plant response rating: 0
[1]; [20]
  Rice plant response rating: 0
[2]; [21]
  Cocklebur plant response rating: 0
[2]; Preemergence, Rate 125 g/ha
  Cocklebur plant response rating (0 to 10 scale): 0
[2]; [22]
  Cocklebur plant response rating: 0
[2]; [23]
  Cocklebur plant response rating: 0
[2]; [24]
  Cocklebur plant response rating: 0
[2]; [25]
  Plant response rating, Cocklebur: 0
[2]; [26]
  Cocklebur plant response rating: 0
[2]; [27]
  Plant response rating, Cocklebur: 0
[3]; [17]
  Ducksalad plant response rating: 0
[3]; [18]
  Ducksalad plant response rating: 0
[3]; [19]
  Ducksalad plant response rating: 0
[3]; [20]
  Ducksalad plant response rating: 0
[4]; [21]
  Giant foxtail plant response rating: 7
[4]; Preemergence, Rate 125 g/ha
  Giant foxtail plant response rating (0 to 10 scale): 6
[4]; [22]
  Giant foxtail plant response rating: 7
[4]; [23]
  Giant foxtail plant response rating: 9
[4]; [24]
  Giant foxtail plant response rating: 1
[4]; [25]
  Plant response rating, Giant foxtail: 2
[4]; [27]
  Plant response rating, Giant foxtail: 10
[5]; [21]
  Sugarbeets plant response rating: 2
[5]; Preemergence, Rate 125 g/ha
  Sugarbeets plant response rating (0 to 10 scale): 0
[5]; [22]
  Sugarbeets plant response rating: 2
[5]; [23]
  Sugarbeets plant response rating: 2
[5]; [24]
  Sugarbeets plant response rating: 0
[5]; [25]
  Plant response rating, Sugarbeets: 1
[5]; [27]
  Plant response rating, Sugarbeets: 4
[6]; [21]
  Nutsedge plant response rating: 0
[6]; Preemergence, Rate 125 g/ha
  Nutsedge plant response rating (0 to 10 scale): 0
[6]; [22]
  Nutsedge plant response rating: 0
[6]; [23]
  Nutsedge plant response rating: 0
[6]; [24]
  Nutsedge plant response rating: 0
[6]; [25]
  Plant response rating, Nutsedge: 0
[6]; [27]
  Plant response rating, Nutsedge: 0
[7]; [21]
  Wheat plant response rating: 1
[7]; Preemergence, Rate 125 g/ha
  Wheat plant response rating (0 to 10 scale): 0
[7]; [22]
  Wheat plant response rating: 0
[7]; [23]
  Wheat plant response rating: 0
[7]; [24]
  Wheat plant response rating: 0
[7]; [25]
  Plant response rating, Wheat: 0
[7]; [27]
  Plant response rating, Wheat: 0
[8]; [17]
  S. Flatsedge plant response rating: 0
[8]; [18]
  S. Flatsedge plant response rating: 0
[8]; [19]
  S. Flatsedge plant response rating: 0
[8]; [20]
  S. Flatsedge plant response rating: 0
[9]; [21]
  Wild oats plant response rating: 0
[9]; Preemergence, Rate 125 g/ha
  Wild oats plant response rating (0 to 10 scale): 0
[9]; [22]
  Wild oats plant response rating: 2
[9]; [23]
  Wild oats plant response rating: 5
[9]; [24]
  Wild oats plant response rating: 0
[9]; [25]
  Plant response rating, Wild oats: 0
[9]; [27]
  Plant response rating, Wild oats: 6
[10]; [21]
  Crabgrass plant response rating: 1
[10]; Preemergence, Rate 125 g/ha
  Crabgrass plant response rating (0 to 10 scale): 0
[10]; [22]
  Crabgrass plant response rating: 2
[10]; [23]
  Crabgrass plant response rating: 7
[10]; [24]
  Crabgrass plant response rating: 0
[10]; [25]
  Plant response rating, Crabgrass: 0
[10]; [27]
  Plant response rating, Crabgrass: 7
[11]; [21]
  Morningglory plant response rating: 2
[11]; Preemergence, Rate 125 g/ha
  Morningglory plant response rating (0 to 10 scale): 0
[11]; [22]
  Morningglory plant response rating: 0
[11]; [23]
  Morningglory plant response rating: 0
[11]; [24]
  Morningglory plant response rating: 1
[11]; [25]
  Plant response rating, Morningglory: 2
[11]; [27]
  Plant response rating, Morningglory: 0
[12]; [21]
  Soybean plant response rating: 5
[12]; Preemergence, Rate 125 g/ha
  Soybean plant response rating (0 to 10 scale): 0
[12]; [22]
  Soybean plant response rating: 0
[12]; [23]
  Soybean plant response rating: 0
[12]; [24]
  Soybean plant response rating: 2
[12]; [25]
  Plant response rating, Soybean: 3
[12]; [27]
  Plant response rating, Soybean: 0
[13]; [21]
  Rape plant response rating: 0
[13]; Preemergence, Rate 125 g/ha
  Rape plant response rating (0 to 10 scale): 0
[13]; [22]
  Rape plant response rating: 0
[13]; [24]
  Rape plant response rating: 0
[13]; [25]
  Plant response rating, Rape: 0
[13]; [27]
  Plant response rating, Rape: 8
[14]; [21]
  Velvetleaf plant response rating: 0
[14]; Preemergence, Rate 125 g/ha
  Velvetleaf plant response rating (0 to 10 scale): 0
[14]; [22]
  Velvetleaf plant response rating: 0
[14]; [23]
  Velvetleaf plant response rating: 0
[14]; [24]
  Velvetleaf plant response rating: 0
[14]; [25]
  Plant response rating, Velvetleaf: 0
[14]; [27]
  Plant response rating, Velvetleaf: 4
[15]; [21]
  Corn plant response rating: 0
[15]; Preemergence, Rate 125 g/ha
  Corn plant response rating (0 to 10 scale): 0
[15]; [22]
  Corn plant response rating: 0
[15]; [23]
  Corn plant response rating: 0
[15]; [24]
  Corn plant response rating: 0
[15]; [25]
  Plant response rating, Corn: 0
[15]; [26]
  Corn plant response rating: 0
[15]; [27]
  Plant response rating, Corn: 0
[16]; [21]
  Redroot pigweed plant response rating: 3
[16]; Preemergence, Rate 125 g/ha
  Redroot pigweed plant response rating (0 to 10 scale): 0
[16]; [22]
  Redroot pigweed plant response rating: 0
[16]; [23]
  Redroot pigweed plant response rating: 0
[16]; [24]
  Redroot pigweed plant response rating: 1
[16]; [25]
  Plant response rating, Redroot pigweed: 2
[16]; [27]
  Plant response rating, Redroot pigweed: 3
